In article PMC12640828 (Frontiers in Pharmacology, 2025):

Legend:
[1] = target: T1, insulin-degrading enzyme (IDE) (Homo sapiens, UniProt P14735); assay: In vitro peptide digestion with IDE followed by LC-MS; type: in vitro ADME; conditions: 100 µM peptide, 0.1 µg IDE, 50 mM Tris-Cl pH 7.5 + 1M NaCl, 25 µL, 37 °C, sampled at 5, 30, 60 min
T1 construct: purchased R&D Systems, Minneapolis, MN
T1 sequence (P14735 1-1019): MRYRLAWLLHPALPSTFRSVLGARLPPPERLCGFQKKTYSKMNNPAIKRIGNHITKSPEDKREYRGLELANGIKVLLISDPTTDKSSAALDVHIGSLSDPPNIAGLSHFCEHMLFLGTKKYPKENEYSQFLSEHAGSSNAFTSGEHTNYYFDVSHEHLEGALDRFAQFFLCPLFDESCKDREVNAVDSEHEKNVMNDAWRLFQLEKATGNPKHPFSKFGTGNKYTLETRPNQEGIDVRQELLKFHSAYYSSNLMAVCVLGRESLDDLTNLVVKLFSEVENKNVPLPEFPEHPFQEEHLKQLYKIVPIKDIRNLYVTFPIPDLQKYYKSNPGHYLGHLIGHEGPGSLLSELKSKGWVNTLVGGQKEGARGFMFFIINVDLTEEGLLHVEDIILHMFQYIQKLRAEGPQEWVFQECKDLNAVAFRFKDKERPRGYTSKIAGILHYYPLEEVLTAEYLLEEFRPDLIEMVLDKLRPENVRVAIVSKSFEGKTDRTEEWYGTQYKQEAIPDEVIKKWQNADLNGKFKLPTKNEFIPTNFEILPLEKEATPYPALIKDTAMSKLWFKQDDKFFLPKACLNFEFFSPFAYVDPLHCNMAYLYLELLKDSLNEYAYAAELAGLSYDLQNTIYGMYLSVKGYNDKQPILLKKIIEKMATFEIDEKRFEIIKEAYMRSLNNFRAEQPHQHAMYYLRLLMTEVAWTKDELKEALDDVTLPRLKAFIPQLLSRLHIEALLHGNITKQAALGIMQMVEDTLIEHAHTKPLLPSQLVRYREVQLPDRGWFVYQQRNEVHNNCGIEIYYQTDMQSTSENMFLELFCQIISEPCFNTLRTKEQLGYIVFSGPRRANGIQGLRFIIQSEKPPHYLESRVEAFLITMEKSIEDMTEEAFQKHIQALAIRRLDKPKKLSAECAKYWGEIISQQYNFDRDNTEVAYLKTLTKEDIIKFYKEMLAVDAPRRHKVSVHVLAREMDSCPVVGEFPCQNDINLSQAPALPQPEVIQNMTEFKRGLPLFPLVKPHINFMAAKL
Protocol: An equal volume (25 µL) of 10% formic acid (Sigma) was added. After heating the reaction at 95 °C for 5 min, desalting of the peptides was carried out using Pierce C18 tips (87782; ThermoFisher Scientific). For peptide-desalting, 30 µL of 2.5% trifluoroacetic acid (TFA) was added in a total 50 µL of the peptide-digestion reaction. Pierce C18 tips were wetted in 50% acetonitrile:water soln, equilibrated with 0.1% TFA, and peptides were passed through the C18 tips. After washing the C18 tips with 0.1% TFA in 5% acetonitrile:water soln, peptides were eluted in 10 µL of 0.1% formic acid in 75% acetonitrile: water soln and stored at −80 °C. Desalted peptide samples were submitted for Liquid Chromatography Mass Spectrometry (LC-MS) analysis to the University of South Carolina-Mass Spectrometry Center.

Solubility in water = type: physicochemical
Rat cardiac H9C2 cells = assay: MTT-cell viability assay; type: cell-based; conditions: 1 μM, 3 μM and 10 µM, 4 days, MTT colorimetric
Protocol: The rat cardiac H9C2 cells were maintained in Dulbecco’s Modified Eagle Medium (DMEM) cell culture medium (supplemented with 10% fetal bovine serum, 4.5 gm/liter D-glucose, and 1x penicillin-streptomycin antibiotic solution) and grown at 37 °C in a humidified incubator with 5% CO2. Cells in a 96-well plate were treated with 1 μM, 3 μM, and 10 µM concentrations of NMEG-CGRP and CMEG-CGRP and further grown for 4 days. The cell viability assay was performed using colorimetric MTT-cell proliferation kit I (Roche-Millipore Sigma, St Louis, MO) following the vendor’s protocol.

[2] = tested on: TAC pressure-overload induced HF in mice; assay: TAC pressure-overload heart failure in mice: echocardiography and heart weight; type: in vivo, male C57BL/6 mice; conditions: 3.6 mg/kg/mouse s.c. on alternate days for 28 days
Protocol: Eight-week-old male C57BL/6 mice, purchased from Charles River Laboratories (Wilmington, MA), were housed in the institutional animal facility on a 12 h light/12 h dark cycle with free access to food and water throughout. Animal protocols were approved by the University of South Carolina-Institutional Animal Care and Use Committee (IACUC) following the NIH guidelines.
A transverse aortic constriction (TAC) procedure was followed to induce pressure-overload HF in mice ([Li et al., 2013]; [Kumar et al., 2019b]; [Kumar et al., 2020]). Briefly, mice were anesthetized under 1%–2% isoflurane and the chests of these mice were opened through the suprasternal notch. A 7–0 polypropylene suture was passed under the aortic arch between the left common carotid and innominate arteries and tied around the aorta and a 27-G needle. After tying a knot, the needle was removed, and the chest was closed using a 6–0 suture. Mice were kept on the 37 °C heat pad until they recovered and buprenorphine (0.1 mg/kg/mouse) was given subcutaneously (s.c.) as post-operative care. An identical procedure except tying a knot around the aortic arch was performed in the Sham groups of mice. Two days post-TAC, mice were divided into four groups (6–7 mice/gr): i- Sham, ii- Sham+NMEG-CGRP, iii- TAC, and iv- TAC+NMEG-CGRP. A stock solution 1 mg/mL of NMEG-CGRP was prepared in sterile 0.9% NaCl soln and NMEG-CGRP at 3.6 mg/kg/mouse dose was injected s.c. in the Sham+NMEG-CGRP and TAC+NMEG-CGRP groups of mice on alternate days for a total of 28 days. […]
The short axis 2D echocardiography was performed before TAC procedure (day 0) and then weekly after start of NMEG-CGRP administration in all groups of mice under 1%–2% isoflurane anesthesia using Vevo 3100 High-Resolution Imaging System (VisualSonics Inc., Toronto, Canada) and cardiac parameters were calculated using VisualSonics Measurement Software ([Li et al., 2013]; [Kumar et al., 2020]).

Compound	Time to complete digestion of full-length peptide by IDE [1]	Solubility in water (Solubility in water)	Viability of cardiac cells (MTT optical density vs control) (Rat cardiac H9C2 cells)	Abnormalities / adverse effect in mice during NMEG-CGRP delivery ([2]; Sham- and TAC-mice)	EF, Sham vs. Sham+NMEG-CGRP ([2]; sham mice, day 30)	Fractional shortening (FS), Sham vs. Sham+NMEG-CGRP ([2]; sham mice, day 30)
CC(C)C[C@H](NC(=O)CNC(=O)[C@H](C)NC(=O)[C@H](CC(C)C)NC(=O)[C@H](CCCNC(=N)N)NC(=O)[C@H](Cc1cnc[nH]1)NC(=O)[C@@H](NC(=O)[C@@H](NC(=O)[C@@H]1CSSC[C@H](NC(=O)[C@H](C)N)C(=O)N[C@@H](CC(=O)O)C(=O)N[C@@H]([C@@H](C)O)C(=O)N[C@@H](C)C(=O)N[C@@H]([C@@H](C)O)C(=O)N1)C(C)C)[C@@H](C)O)C(=O)N[C@@H](CC(C)C)C(=O)N[C@@H](CO)C(=O)N[C@@H](CCCNC(=N)N)C(=O)N[C@@H](CO)C(=O)NCC(=O)NCC(=O)N[C@H](C(=O)N[C@H](C(=O)N[C@@H](CCCCN)C(=O)N[C@@H](CC(N)=O)C(=O)N[C@@H](CC(N)=O)C(=O)N[C@@H](Cc1ccccc1)C(=O)N[C@H](C(=O)N1CCC[C@H]1C(=O)N[C@H](C(=O)N[C@@H](CC(N)=O)C(=O)N[C@H](C(=O)NCC(=O)N[C@@H](CO)C(=O)N[C@@H](CCCCN)C(=O)N[C@@H](C)C(=O)N[C@@H](Cc1ccccc1)C(N)=O)C(C)C)[C@@H](C)O)C(C)C)C(C)C)C(C)C [human α-CGRP, reference compound]	5 to 30 min					
COCCNCC(=O)N(CCOC)CC(=O)N[C@@H](C)C(=O)N[C@H]1CSSC[C@@H](C(=O)N[C@H](C(=O)N[C@H](C(=O)N[C@@H](Cc2c[nH]cn2)C(=O)N[C@@H](CCCNC(=N)N)C(=O)N[C@@H](CC(C)C)C(=O)N[C@@H](C)C(=O)NCC(=O)N[C@@H](CC(C)C)C(=O)N[C@@H](CC(C)C)C(=O)N[C@@H](CO)C(=O)N[C@@H](CCCNC(=N)N)C(=O)N[C@@H](CO)C(=O)NCC(=O)NCC(=O)N[C@H](C(=O)N[C@H](C(=O)N[C@@H](CCCCN)C(=O)N[C@@H](CC(N)=O)C(=O)N[C@@H](CC(N)=O)C(=O)N[C@@H](Cc2ccccc2)C(=O)N[C@H](C(=O)N2CCC[C@H]2C(=O)N[C@H](C(=O)N[C@@H](CC(N)=O)C(=O)N[C@H](C(=O)NCC(=O)N[C@@H](CO)C(=O)N[C@@H](CCCCN)C(=O)N[C@@H](C)C(=O)N[C@@H](Cc2ccccc2)C(N)=O)C(C)C)[C@@H](C)O)C(C)C)C(C)C)C(C)C)[C@@H](C)O)C(C)C)NC(=O)[C@H]([C@@H](C)O)NC(=O)[C@H](C)NC(=O)[C@H]([C@@H](C)O)NC(=O)[C@H](CC(=O)O)NC1=O [NMEG-CGRP]	> 60 min	soluble in water	did not inhibit the growth of H9C2 cells	did not observe any abnormalities	non-significant	non-significant
